Experimental data from US20230085307A1, “PYRIDAZINONE COMPOUND AND HERBICIDE” (NISSAN CHEMICAL CORPORATION, priority 2019, published 2023).

Columns and labels:
late watergrass = assay: Test Example 1: herbicidal activity, application before weed generation under submerged conditions (Table 16, symbol A); type: in vivo, late watergrass (Echinochloa oryzicola); conditions: amount of applied herbicide 320 g/ha
Outline: (§1)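 Emulsion formulation, water-diluted to set dose, was put onto the flooded surface (4 cm depth, alluvial soil) the same day weeds were sown and 2.5-leaf rice transplanted. After 3 weeks at 25-30 °C under glass, each species was rated 0 (≤5% kill) to 5 (≥90% kill).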

Japanese bulrush = assay: Test Example 1: herbicidal activity, application before weed generation under submerged conditions (Table 16, symbol B); type: in vivo, Japanese bulrush (Schoenoplectus juncoides); conditions: amount of applied herbicide 320 g/ha
Outline: as §1

oval-leafed pondweed = assay: Test Example 1: herbicidal activity, application before weed generation under submerged conditions (Table 16, symbol C); type: in vivo, oval-leafed pondweed (Monochoria vaginalis); conditions: amount of applied herbicide 320 g/ha
Outline: as §1

barnyard grass [1] = assay: Test Example 3: herbicidal effect by foliage application, Wagner pot (Table 18, symbol H); type: in vivo, barnyard grass (Echinochloa crus-galli); conditions: 320 g/ha
Outline: (§2)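 Plants were sown in alluvial soil held under 0.1–0.5 cm standing water and grown 14 days in a greenhouse at 25–30 °C. An emulsifiable formulation, water-diluted to the set dose, was then sprayed onto the foliage, and effects were scored three weeks later using previously defined criteria.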

Chinese sprangletop = assay: Test Example 3: herbicidal effect by foliage application, Wagner pot (Table 18, symbol D); type: in vivo, chinese sprangletop (Leptochloa chinensis); conditions: 320 g/ha
Outline: as §2

rice flat sedge = assay: Test Example 3: herbicidal effect by foliage application, Wagner pot (Table 18, symbol E); type: in vivo, rice flat sedge (Cyperus iria); conditions: 320 g/ha
Outline: as §2

southern crabgrass [2] = assay: Test Example 4: herbicidal effect by soil treatment (Table 19, symbol F); type: in vivo, southern crabgrass (Digitaria ciliaris); conditions: amount of applied herbicide 320 g/ha
Outline: (§3)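 Scoring uses the grading scale of an earlier test, three weeks post-application. Treatment consists of spraying a diluted emulsion formulation across the surface of sterilized diluvial soil in which seeds are buried near 1.5 cm deep; boxes are kept in a greenhouse between 25° C. and 30° C.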

green foxtail [3] = assay: Test Example 4: herbicidal effect by soil treatment (Table 19, symbol G); type: in vivo, green foxtail (Setaria viridis); conditions: amount of applied herbicide 320 g/ha
Outline: as §3

barnyard grass [4] = assay: Test Example 4: herbicidal effect by soil treatment (Table 19, symbol H); type: in vivo, barnyard grass (Echinochloa crus-galli); conditions: amount of applied herbicide 320 g/ha
Outline: as §3

wild oat [5] = assay: Test Example 4: herbicidal effect by soil treatment (Table 19, symbol I); type: in vivo, wild oat (Avena fatua); conditions: amount of applied herbicide 320 g/ha
Outline: as §3

blackgrass [6] = assay: Test Example 4: herbicidal effect by soil treatment (Table 19, symbol J); type: in vivo, blackgrass (Alopecurus myosuroides); conditions: amount of applied herbicide 320 g/ha
Outline: as §3

Italian ryegrass [7] = assay: Test Example 4: herbicidal effect by soil treatment (Table 19, symbol K); type: in vivo, Italian ryegrass (Lolium multiflorum); conditions: amount of applied herbicide 320 g/ha
Outline: as §3

windgrass [8] = assay: Test Example 4: herbicidal effect by soil treatment (Table 19, symbol L); type: in vivo, windgrass (Apera spica-venti); conditions: amount of applied herbicide 320 g/ha
Outline: as §3

velvetleaf [9] = assay: Test Example 4: herbicidal effect by soil treatment (Table 19, symbol M); type: in vivo, velvetleaf (Abutilon theophrasti); conditions: amount of applied herbicide 320 g/ha
Outline: as §3

redroot pigweed [10] = assay: Test Example 4: herbicidal effect by soil treatment (Table 19, symbol N); type: in vivo, redroot pigweed (Amaranthus retroflexus); conditions: amount of applied herbicide 320 g/ha
Outline: as §3

lambsquarters [11] = assay: Test Example 4: herbicidal effect by soil treatment (Table 19, symbol O); type: in vivo, lambsquarters (Chenopodium album); conditions: amount of applied herbicide 320 g/ha
Outline: as §3

chickweed [12] = assay: Test Example 4: herbicidal effect by soil treatment (Table 19, symbol P); type: in vivo, common chickweed (Stellaria media); conditions: amount of applied herbicide 320 g/ha
Outline: as §3

persian speedwell [13] = assay: Test Example 4: herbicidal effect by soil treatment (Table 19, symbol R); type: in vivo, Persian speedwell (Veronica persica); conditions: amount of applied herbicide 320 g/ha
Outline: as §3

southern crabgrass [14] = assay: Test Example 5: herbicidal effect by foliage application, plastic box (Table 20, symbol F); type: in vivo, southern crabgrass (Digitaria ciliaris); conditions: foliage application after 14-day growth, evaluated three weeks after application
Outline: (§4)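 Post-emergence foliar test in sterilized diluvial soil. Compound applied as water-diluted emulsion at a predetermined rate to 14-day-old plants; evaluation at three weeks.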

green foxtail [15] = assay: Test Example 5: herbicidal effect by foliage application, plastic box (Table 20, symbol G); type: in vivo, green foxtail (Setaria viridis); conditions: foliage application after 14-day growth, evaluated three weeks after application
Outline: as §4

barnyard grass [16] = assay: Test Example 5: herbicidal effect by foliage application, plastic box (Table 20, symbol H); type: in vivo, barnyard grass (Echinochloa crus-galli); conditions: foliage application after 14-day growth, evaluated three weeks after application
Outline: as §4

wild oat [17] = assay: Test Example 5: herbicidal effect by foliage application, plastic box (Table 20, symbol I); type: in vivo, wild oat (Avena fatua); conditions: foliage application after 14-day growth, evaluated three weeks after application
Outline: as §4

blackgrass [18] = assay: Test Example 5: herbicidal effect by foliage application, plastic box (Table 20, symbol J); type: in vivo, blackgrass (Alopecurus myosuroides); conditions: foliage application after 14-day growth, evaluated three weeks after application
Outline: as §4

Italian ryegrass [19] = assay: Test Example 5: herbicidal effect by foliage application, plastic box (Table 20, symbol K); type: in vivo, Italian ryegrass (Lolium multiflorum); conditions: foliage application after 14-day growth, evaluated three weeks after application
Outline: as §4

windgrass [20] = assay: Test Example 5: herbicidal effect by foliage application, plastic box (Table 20, symbol L); type: in vivo, windgrass (Apera spica-venti); conditions: foliage application after 14-day growth, evaluated three weeks after application
Outline: as §4

velvetleaf [21] = assay: Test Example 5: herbicidal effect by foliage application, plastic box (Table 20, symbol M); type: in vivo, velvetleaf (Abutilon theophrasti); conditions: foliage application after 14-day growth, evaluated three weeks after application
Outline: as §4

redroot pigweed [22] = assay: Test Example 5: herbicidal effect by foliage application, plastic box (Table 20, symbol N); type: in vivo, redroot pigweed (Amaranthus retroflexus); conditions: foliage application after 14-day growth, evaluated three weeks after application
Outline: as §4

lambsquarters [23] = assay: Test Example 5: herbicidal effect by foliage application, plastic box (Table 20, symbol O); type: in vivo, lambsquarters (Chenopodium album); conditions: foliage application after 14-day growth, evaluated three weeks after application
Outline: as §4

chickweed [24] = assay: Test Example 5: herbicidal effect by foliage application, plastic box (Table 20, symbol P); type: in vivo, common chickweed (Stellaria media); conditions: foliage application after 14-day growth, evaluated three weeks after application
Outline: as §4

persian speedwell [25] = assay: Test Example 5: herbicidal effect by foliage application, plastic box (Table 20, symbol R); type: in vivo, Persian speedwell (Veronica persica); conditions: foliage application after 14-day growth, evaluated three weeks after application
Outline: as §4

[26] = amount of applied herbicide 320 g/ha

Row | SMILES | Herbicidal effect, A: late watergrass (late watergrass) | Herbicidal effect, B: Japanese bulrush (Japanese bulrush) | Herbicidal effect, C: oval-leafed pondweed (oval-leafed pondweed) | herbicidal effect on barnyard grass (H) (barnyard grass [1]) | herbicidal effect on Chinese sprangletop (D) (Chinese sprangletop) | herbicidal effect on rice flat sedge (E) (rice flat sedge) | Herbicidal effect by soil treatment, F: southern crabgrass (southern crabgrass [2]) | Herbicidal effect by soil treatment, G: green foxtail (green foxtail [3]) | Herbicidal effect by soil treatment, H: barnyard grass (barnyard grass [4]) | Herbicidal effect by soil treatment, I: wild oat (wild oat [5]) | Herbicidal effect by soil treatment, J: blackgrass (blackgrass [6]) | Herbicidal effect by soil treatment, K: Italian ryegrass (Italian ryegrass [7]) | Herbicidal effect by soil treatment, L: windgrass (windgrass [8]) | Herbicidal effect by soil treatment, M: velvetleaf (velvetleaf [9]) | Herbicidal effect by soil treatment, N: redroot pigweed (redroot pigweed [10]) | Herbicidal effect by soil treatment, O: lambsquarters (lambsquarters [11]) | Herbicidal effect by soil treatment, P: chickweed (chickweed [12]) | Herbicidal effect by soil treatment, R: persian speedwell (persian speedwell [13]) | other results
1 | CCOc1cc(F)ccc1-c1sc2c(Cl)cccc2c1-c1c(O)c(C)nn(C)c1=O [4-035] | 2 (Herbicidal rate of 20% or more and less than 40%) | 0 (Herbicidal rate of 5% or less (almost no effect)) | 0 (Herbicidal rate of 5% or less (almost no effect)) | 5 (Herbicidal rate of 90% or more (almost completely withered)) | 3 (Herbicidal rate of 40% or more and less than 70%) | 5 (Herbicidal rate of 90% or more (almost completely withered)) | 4 (Herbicidal rate of 70% or more and less than 90%) | 3 (Herbicidal rate of 40% or more and less than 70%) | 5 (Herbicidal rate of 90% or more (almost completely withered)) | 0 (Herbicidal rate of 5% or less (almost no effect)) | 0 (Herbicidal rate of 5% or less (almost no effect)) | 0 (Herbicidal rate of 5% or less (almost no effect)) | 0 (Herbicidal rate of 5% or less (almost no effect)) | 2 (Herbicidal rate of 20% or more and less than 40%) | 3 (Herbicidal rate of 40% or more and less than 70%) | 0 (Herbicidal rate of 5% or less (almost no effect)) | 3 (Herbicidal rate of 40% or more and less than 70%) | 1 (Herbicidal rate of 5% or more and less than 20%) | herbicidal effect on F: southern crabgrass (evaluation grade 0-5) (southern crabgrass [14]; 320 g/ha): 5 (Herbicidal rate of 90% or more (almost completely withered)); herbicidal effect on G: green foxtail (evaluation grade 0-5) (green foxtail [15]; 320 g/ha): 5 (Herbicidal rate of 90% or more (almost completely withered)); herbicidal effect on H: barnyard grass (evaluation grade 0-5) (barnyard grass [16]; 320 g/ha): 5 (Herbicidal rate of 90% or more (almost completely withered)); herbicidal effect on I: wild oat (evaluation grade 0-5) (wild oat [17]; 320 g/ha): 0 (Herbicidal rate of 5% or less (almost no effect)); herbicidal effect on J: blackgrass (evaluation grade 0-5) (blackgrass [18]; 320 g/ha): 5 (Herbicidal rate of 90% or more (almost completely withered)); herbicidal effect on K: Italian ryegrass (evaluation grade 0-5) (Italian ryegrass [19]; 320 g/ha): 4 (Herbicidal rate of 70% or more and less than 90%); herbicidal effect on L: windgrass (evaluation grade 0-5) (windgrass [20]; 320 g/ha): 5 (Herbicidal rate of 90% or more (almost completely withered)); herbicidal effect on M: velvetleaf (evaluation grade 0-5) (velvetleaf [21]; 320 g/ha): 4 (Herbicidal rate of 70% or more and less than 90%); herbicidal effect on N: redroot pigweed (evaluation grade 0-5) (redroot pigweed [22]; 320 g/ha): 5 (Herbicidal rate of 90% or more (almost completely withered)); herbicidal effect on O: lambsquarters (evaluation grade 0-5) (lambsquarters [23]; 320 g/ha): 4 (Herbicidal rate of 70% or more and less than 90%); herbicidal effect on P: chickweed (evaluation grade 0-5) (chickweed [24]; 320 g/ha): 4 (Herbicidal rate of 70% or more and less than 90%); herbicidal effect on R: persian speedwell (evaluation grade 0-5) (persian speedwell [25]; 320 g/ha): 5 (Herbicidal rate of 90% or more (almost completely withered))
2 | COc1ccccc1-c1sc2c(C)cccc2c1-c1c(O)c(C)nn(C)c1=O [4-106] | 2 (Herbicidal rate of 20% or more and less than 40%) | 0 (Herbicidal rate of 5% or less (almost no effect)) | 0 (Herbicidal rate of 5% or less (almost no effect)) | 4 (Herbicidal rate of 70% or more and less than 90%) | 0 (Herbicidal rate of 5% or less (almost no effect)) | 5 (Herbicidal rate of 90% or more (almost completely withered)) | 3 (Herbicidal rate of 40% or more and less than 70%) | 1 (Herbicidal rate of 5% or more and less than 20%) | 0 (Herbicidal rate of 5% or less (almost no effect)) | 0 (Herbicidal rate of 5% or less (almost no effect)) | 0 (Herbicidal rate of 5% or less (almost no effect)) | 0 (Herbicidal rate of 5% or less (almost no effect)) | 3 (Herbicidal rate of 40% or more and less than 70%) | 0 (Herbicidal rate of 5% or less (almost no effect)) | 4 (Herbicidal rate of 70% or more and less than 90%) | 1 (Herbicidal rate of 5% or more and less than 20%) | 1 (Herbicidal rate of 5% or more and less than 20%) | 1 (Herbicidal rate of 5% or more and less than 20%) | Herbicidal effect by foliage application, F: southern crabgrass (southern crabgrass [14]; [26]): 1 (Herbicidal rate of 5% or more and less than 20%); Herbicidal effect by foliage application, G: green foxtail (green foxtail [15]; [26]): 0 (Herbicidal rate of 5% or less (almost no effect)); Herbicidal effect by foliage application, H: barnyard grass (barnyard grass [16]; [26]): 1 (Herbicidal rate of 5% or more and less than 20%); Herbicidal effect by foliage application, I: wild oat (wild oat [17]; [26]): 2 (Herbicidal rate of 20% or more and less than 40%); Herbicidal effect by foliage application, J: blackgrass (blackgrass [18]; [26]): 4 (Herbicidal rate of 70% or more and less than 90%); Herbicidal effect by foliage application, K: Italian ryegrass (Italian ryegrass [19]; [26]): 4 (Herbicidal rate of 70% or more and less than 90%); Herbicidal effect by foliage application, L: windgrass (windgrass [20]; [26]): 5 (Herbicidal rate of 90% or more (almost completely withered)); Herbicidal effect by foliage application, M: velvetleaf (velvetleaf [21]; [26]): 3 (Herbicidal rate of 40% or more and less than 70%); Herbicidal effect by foliage application, N: redroot pigweed (redroot pigweed [22]; [26]): 4 (Herbicidal rate of 70% or more and less than 90%); Herbicidal effect by foliage application, O: lambsquarters (lambsquarters [23]; [26]): 3 (Herbicidal rate of 40% or more and less than 70%); Herbicidal effect by foliage application, P: chickweed (chickweed [24]; [26]): 5 (Herbicidal rate of 90% or more (almost completely withered)); Herbicidal effect by foliage application, R: persian speedwell (persian speedwell [25]; [26]): 5 (Herbicidal rate of 90% or more (almost completely withered))
